According to article PMC2533696 (PLoS Pathogens, 2008):
Where a SMILES comes first, the peptide text is derived from it. Where no end group is shown, it is not given here.

Legend:
[1] = biological target: Clostridium botulinum neurotoxin serotype A truncated light chain (residues 1 to 424), Balc424 (Clostridium botulinum, UniProt P0DPI0); assay: biochemical; details: 37°C, 30 min
BoNT/A = details: read-out: Kι; cited from earlier work

Clostridium botulinum neurotoxin serotype A truncated light chain (residues 1 to 424), Balc424, sequence (P0DPI0 1-424 limits assumed): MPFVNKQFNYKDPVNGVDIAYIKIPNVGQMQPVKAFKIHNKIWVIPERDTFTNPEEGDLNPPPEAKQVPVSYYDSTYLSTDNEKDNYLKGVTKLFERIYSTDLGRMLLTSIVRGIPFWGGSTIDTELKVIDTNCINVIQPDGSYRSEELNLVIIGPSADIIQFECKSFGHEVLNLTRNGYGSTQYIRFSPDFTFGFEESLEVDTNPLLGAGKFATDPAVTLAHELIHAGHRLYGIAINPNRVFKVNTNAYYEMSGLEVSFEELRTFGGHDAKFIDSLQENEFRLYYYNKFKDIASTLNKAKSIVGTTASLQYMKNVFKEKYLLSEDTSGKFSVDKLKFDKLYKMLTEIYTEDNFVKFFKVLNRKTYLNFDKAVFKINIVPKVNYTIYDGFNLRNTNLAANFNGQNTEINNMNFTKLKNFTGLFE

| Molecule | IC50 [1] | Ki (BoNT/A) |
| --- | --- | --- |
| CSCC[C@H](NC(=O)[C@H](CCCCN)NC(=O)[C@@H](NC(=O)[C@H](C)NC(=O)[C@H](CCCNC(=N)N)NC(=O)[C@@H](N)CCC(N)=O)[C@@H](C)O)C(N)=O [QRATKM] (H-QRATKM-NH2) | 133 µM | – |
| Ac-CRATKML | – | 1.9 µM |
